Values quoted from earlier work in US11246852B2, “Fast-acting plant-based medicinal compounds and nutritional supplements” (RECEPTOR HOLDINGS, INC., priority 2016, dated 2022).

CCCCCc1cc(O)c2c(c1)OC(C)(C)[C@@H]1CCC(C)=C[C@@H]21 [THC, delta-9-tetrahydrocannabinol]
appetite stimulant effect may continue for (after administration): ≥ 24 h | duration of action (after oral administration, psychoactive effects): 4 to 6 h
